Test results reported in patent US10053463B2 (Janssen Pharmaceutica NV, priority 2013, dated 2018).

Target: P2X7 (Homo sapiens (Human), UniProt Q99572)
Test: P2X7 antagonism in human peripheral blood mononuclear cells (PBMCs), IL-1β release
Assay type: cell-based
Conditions: for remaining activity at 10 µM: P2X7, read-out: PBMC 10 μM (% control)
Procedure: P2X7 Antagonism in Human Peripheral Blood Mononuclear Cells (PBMCs) and Human Whole Blood.
Human blood was collected using a blood donor program. PBMCs were isolated from blood using a Ficoll density gradient technique. Briefly, blood was laid on Ficoll solution and centrifuged at RT for 20 minutes at 2000 rpm. The buffy layer (between red blood cells and plasma) was carefully collected by aspiration, washed with PBS and centrifuged again at 1500 rpm for 15 minutes. The resulting cell pellet was washed and plated on 96 well-plates for experiments. For the Human Whole Blood experiments, 150 μl of human blood was platted on 96 well-plates. Lipopolysaccharide (LPS) (30 ng/ml) was added to each well and incubated for 1 hour. Test compounds were then added and incubated for 30 minutes. The P2X7 agonist, 2′(3′)-O-(4-benzoylbenzoyl) adenosine 5′-triphosphate (Bz-ATP) was then added at a final concentration of 0.5 mM (PBMC) or 1 mM (blood). Cells were incubated for an additional 1.5 hours. At that point, supernatant was collected and stored for IL-1β assay using manufacturer's protocol for enzyme-linked immunosorbent assay (ELISA). Data was expressed as percent control, where control is defined as the difference in IL-1β release in LPS+Bz-ATP samples and LPS only samples. Data was plotted as response (% control) versus concentration to generate IC50 values. […] Data are analyzed and graphed on Graphpad Prism 5. For analysis, each concentration point is averaged from triplicate values and the averaged values are plotted on Graphpad Prism.

[1] = Table 3 (additional runs), 10 μM compound

Chain of P2X7 (Q99572 whole entry): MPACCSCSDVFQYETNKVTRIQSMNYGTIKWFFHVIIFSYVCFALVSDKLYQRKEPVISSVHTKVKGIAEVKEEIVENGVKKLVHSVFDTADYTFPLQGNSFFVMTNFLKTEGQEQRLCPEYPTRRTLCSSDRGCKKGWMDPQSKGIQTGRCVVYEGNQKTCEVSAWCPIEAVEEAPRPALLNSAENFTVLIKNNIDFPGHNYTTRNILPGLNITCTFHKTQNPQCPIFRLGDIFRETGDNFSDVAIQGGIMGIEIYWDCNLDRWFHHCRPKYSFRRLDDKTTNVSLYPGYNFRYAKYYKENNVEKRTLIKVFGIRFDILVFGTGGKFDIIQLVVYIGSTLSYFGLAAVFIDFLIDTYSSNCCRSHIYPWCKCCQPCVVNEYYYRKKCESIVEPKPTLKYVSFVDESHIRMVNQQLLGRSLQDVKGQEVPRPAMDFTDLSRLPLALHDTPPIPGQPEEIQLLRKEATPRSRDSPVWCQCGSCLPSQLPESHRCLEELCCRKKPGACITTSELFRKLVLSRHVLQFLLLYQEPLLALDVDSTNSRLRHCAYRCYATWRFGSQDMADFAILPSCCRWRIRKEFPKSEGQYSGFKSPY

Row | remaining activity at 10 µM [1] | SMILES | also measured
1 | 46% | CC(c1cccc(C(F)(F)F)c1Cl)N1CCn2c(nnc2-c2cnccn2)C1=O (racemic) [Example 4, (±)7-{1-[2-Chloro-3-(trifluoromethyl)phenyl]ethyl}-3-pyrazin-2-yl-6,7-dihydro[1,2,4]triazolo[4,3-a]pyrazin-8(5H)-one] | 
2 | 23.7% | O=C1c2nnc(-c3cnccn3)n2CCN1Cc1cccc(F)c1F [Example 6, 7-(2,3-Difluorobenzyl)-3-pyrazin-2-yl-6,7-dihydro[1,2,4]triazolo[4,3-a]pyrazin-8(5H)-one] | 
3 | 8.8% | CS(=O)(=O)c1cc(Cl)ccc1CN1CCn2c(nnc2-c2cnccn2)C1=O [Example 7, 7-[4-Chloro-2-(methylsulfonyl)benzyl]-3-pyrazin-2-yl-6,7-dihydro[1,2,4]triazolo[4,3-a]pyrazin-8(5H)-one] | 
4 | 27% | Cc1cccc(C)c1CN1C(=O)c2nnc(-c3cnccn3)n2C[C@@H]1C [Example 87, (6S)-7-(2,6-Dimethylbenzyl)-6-methyl-3-pyrazin-2-yl-6,7-dihydro[1,2,4]triazolo[4,3-a]pyrazin-8(5H)-one] | 
5 | 28.3% | C[C@H]1Cn2c(nnc2-c2cnccn2)C(=O)N1Cc1c(Cl)cccc1Cl [Example 86, (6S)-7-(2,6-Dichlorobenzyl)-6-methyl-3-pyrazin-2-yl-6,7-dihydro[1,2,4]triazolo[4,3-a]pyrazin-8(5H)-one] | 
6 | 30.7% | C[C@H]1Cn2c(nnc2-c2cnccn2)C(=O)N1Cc1ccccc1[N+](=O)[O-] [Example 89, (6S)-6-Methyl-7-(2-nitrobenzyl)-3-pyrazin-2-yl-6,7-dihydro[1,2,4]triazolo[4,3-a]pyrazin-8(5H)-one] | 
7 | 8.8% | O=C1c2nnc(-c3cnccn3)n2CCN1Cc1c(Cl)cccc1Cl [Example 5, 7-(2,6-Dichlorobenzyl)-3-pyrazin-2-yl-6,7-dihydro[1,2,4]triazolo[4,3-a]pyrazin-8(5H)-one] | 
8 | 16.6% | Cc1c(CN2C(=O)c3nnc(-c4cnccn4)n3C[C@@H]2C)cccc1C(F)(F)F [Example 85, (6S)-6-Methyl-7-[2-methyl-3-(trifluoromethyl)benzyl]-3-pyrazin-2-yl-6,7-dihydro[1,2,4]triazolo[4,3-a]pyrazin-8(5H)-one] | 
9 | 59.3% | Cc1c(CN2CCn3c(nnc3-c3ccccn3)C2=O)cccc1C(F)(F)F [Example 10, 7-[2-Methyl-3-(trifluoromethyl)benzyl]-3-pyridin-2-yl-6,7-dihydro[1,2,4]triazolo[4,3-a]pyrazin-8(5H)-one] | 
10 | -10.6% | O=C1c2nnc(-c3ccccn3)n2CCN1Cc1cccc(Cl)c1Cl [Example 8, 7-(2,3-Dichlorobenzyl)-3-pyridin-2-yl-6,7-dihydro[1,2,4]triazolo[4,3-a]pyrazin-8(5H)-one] | 

Further lines, the compound ahead of its results:

Row | SMILES | remaining activity at 10 µM [1] | also measured
11 | O=C1c2nnc(-c3ncc(F)cn3)n2CC(C2CC2)N1Cc1cccc(C(F)(F)F)c1Cl (racemic) [Example 70, (±)-7-[2-Chloro-3-(trifluoromethyl)benzyl]-6-cyclopropyl-3-(5-fluoropyrimidin-2-yl)-6,7-dihydro[1,2,4]triazolo[4,3-a]pyrazin-8(5H)-one] | 9.1% | 
12 | O=C1c2nnc(-c3cnccn3)n2CCN1Cc1cccc(C(F)(F)F)c1Cl [Example 3, 7-[2-Chloro-3-(trifluoromethyl)benzyl]-3-pyrazin-2-yl-6,7-dihydro[1,2,4]triazolo[4,3-a]pyrazin-8(5H)-one] |  | PBMC 1 μM (% control) (Table 3 (additional runs), 1 μM compound): −0.6 % control
13 | O=C1c2nnc(-c3cc[nH]n3)n2CC(C2CC2)N1Cc1cccc(C(F)(F)F)c1Cl (racemic) [Example 68, (±)-7-[2-Chloro-3-(trifluoromethyl)benzyl]-6-cyclopropyl-3-(1H-pyrazol-3-yl)-6,7-dihydro[1,2,4]triazolo[4,3-a]pyrazin-8(5H)-one] | 1.6% | 
14 | C[C@H]1Cn2c(nnc2-c2ccon2)C(=O)N1Cc1cccc(C(F)(F)F)c1Cl [Example 41, (6S)-7-[2-Chloro-3-(trifluoromethyl)benzyl]-3-isoxazol-3-yl-6-methyl-6,7-dihydro[1,2,4]triazolo[4,3-a]pyrazin-8(5H)-one] | 35% | 
15 | Cc1cncc(-c2nnc3n2C[C@H](C)n2c(-c4cccc(C(F)(F)F)c4Cl)nnc2-3)c1 [Example 123, (S)-3-(2-chloro-3-(trifluoromethyl)phenyl)-5-methyl-8-(5-methylpyridin-3-yl)-5,6-dihydrobis([1,2,4]triazolo)[4,3-a:3′,4′-c]pyrazine] | 2.4% | 
16 | C[C@H]1Cn2c(nnc2-c2ncc(F)cn2)C(=O)N1Cc1cccc(C(F)(F)F)c1Cl [Example 34, (6S)-7-[2-Chloro-3-(trifluoromethyl)benzyl]-3-(5-fluoropyrimidin-2-v1)-6-methyl-6,7-dihydro[1,2,4]triazolo[4,3-a]pyrazin-8(5H)-one] | 0.8% | 
17 | CC[C@H]1Cn2c(nnc2-c2cccnc2)C(=O)N1Cc1cccc(C(F)(F)F)c1Cl [Example 73, (6S)-7-[2-Chloro-3-(trifluoromethyl)benzyl]-6-ethyl-3-pyridin-3-yl-6,7-dihydro[1,2,4]triazolo[4,3-a]pyrazin-8(5H)-one] | 6.2% | 
18 | Cc1nc(-c2nnc3n2C[C@H](C)N(Cc2cccc(C(F)(F)F)c2Cl)C3=O)cs1 [Example 36, (6S)-7-[2-Chloro-3-(trifluoromethyl)benzyl]-6-methyl-3-(2-methyl-1,3-thiazol-4-yl)-6,7-dihydro[1,2,4]triazolo[4,3-a]pyrazin-8(5H)-one] | 2.8% | 
19 | CC[C@H]1Cn2c(nnc2-c2cc[nH]n2)C(=O)N1Cc1cccc(C(F)(F)F)c1Cl [Example 74, (6S)-7-[2-Chloro-3-(trifluoromethyl)benzyl]-6-ethyl-3-(1H-pyrazol-3-yl)-6,7-dihydro[1,2,4]triazolo[4,3-a]pyrazin-8(5H)-one] | 0.3% | 
20 | C[C@H]1Cn2c(nnc2-c2ncccn2)C(=O)N1Cc1cccc(C(F)(F)F)c1Cl [Example 27, (6S)-7-[2-Chloro-3-(trifluoromethyl)benzyl]-6-methyl-3-pyrimidin-2-yl-6,7-dihydro[1,2,4]triazolo[4,3-a]pyrazin-8(5H)-one] | -0.7% | 
21 | CC(c1cccc(C(F)(F)F)c1Cl)N1C(=O)c2nnc(-c3cnccn3)n2C[C@@H]1C (stereo partly shown) [Example 93] | 4.5% | PBMC 10 μM (% control) (Table 2, 10 μM compound, IL-1β release, LPS + 0.5 mM Bz-ATP): 4.5 % control
22 | Cc1cccc(-c2nnc3n2C[C@H](C)N(Cc2cccc(C(F)(F)F)c2Cl)C3=O)n1 [Example 46, (6S)-7-[2-Chloro-3-(trifluoromethyl)benzyl]-6-methyl-3-(6-methylpyridin-2-yl)-6,7-dihydro[1,2,4]triazolo[4,3-a]pyrazin-8(5H)-one] | 2.7% | 
23 | C[C@H]1Cn2c(nnc2-c2nccc(C(F)(F)F)n2)C(=O)N1Cc1cccc(C(F)(F)F)c1Cl [Example 54, (6S)-7-[2-chloro-3-(trifluoromethyl)benzyl]-6-methyl-3-[4-(trifluoromethyl)pyrimidin-2-yl]-6,7-dihydro[1,2,4]triazolo[4,3-a]pyrazin-8(5H)-one] | 4.2% | 
24 | CC[C@H]1Cn2c(nnc2-c2ncc(F)cn2)C(=O)N1Cc1cccc(C(F)(F)F)c1Cl [Example 75, (6S)-7-[2-Chloro-3-(trifluoromethyl)benzyl]-6-ethyl-3-(5-fluoropyrimidin-2-yl)-6,7-dihydro[1,2,4]triazolo[4,3-a]pyrazin-8(5H)-one] | 22.6% | 
25 | C[C@H]1Cn2c(nnc2-c2ncco2)C(=O)N1Cc1cccc(C(F)(F)F)c1Cl [Example 20, (6S)-7-[2-Chloro-3-(trifluoromethyl)benzyl]-6-methyl-3-(1,3-oxazol-2-yl)-6,7-dihydro[1,2,4]triazolo[4,3-a]pyrazin-8(5H)-one] | 4.7% | 
26 | C[C@H]1Cn2c(nnc2-c2csc(C(F)(F)F)n2)C(=O)N1Cc1cccc(C(F)(F)F)c1Cl [Example 38, (6S)-7-[2-Chloro-3-(trifluoromethyl)benzyl]-6-methyl-3-[2-(trifluoromethyl)-1,3-thiazol-4-yl]-6,7-dihydro[1,2,4]triazolo[4,3-a]pyrazin-8(5H)-one] | 19.8% | 
27 | C[C@H](c1ccccc1)N1C(=O)c2nnc(-c3cnccn3)n2C[C@@H]1C (relative stereo) [Example 94, (6S)-6-Methyl-7[(1R*)-1-phenylethyl]-3-pyrazin-2-yl-6,7-dihydro[1,2,4]triazolo[4,3-a]pyrazin-8(5H)-one] | -1.3% | 
28 | C[C@H]1Cn2c(nnc2-c2cnccn2)C(=O)N1 [Example 77, (6S)-6-Methyl-3-pyrazin-2-yl-6,7-dihydro[1,2,4]triazolo[4,3-a]pyrazin-8(5H)-one] | 105% | 
29 | C[C@H]1Cn2c(nnc2-c2cnccn2)C(=O)N1Cc1ccc(S(C)(=O)=O)cc1Cl [Example 81, (6S)-7-[2-Chloro-4-(methylsulfonyl)benzyl]-6-methyl-3-pyrazin-2-yl-6,7-dihydro[1,2,4]triazolo[4,3-a]pyrazin-8(5H)-one] | 170% | 
30 | C[C@H]1Cn2c(nnc2C2CCCCC2)C(=O)N1Cc1cccc(C(F)(F)F)c1Cl [Example 51, (6S)-7-[2-Chloro-3-(trifluoromethyl)benzyl]-3-cyclohexyl-6-methyl-6,7-dihydro[1,2,4]triazolo[4,3-a]pyrazin-8(5H)-one] | 22.4% | 
